A word on the AUC(0-inf): it is total exposure, with the tail of the curve extrapolated. Read a low AUC(0-inf) as less exposure. As a reminder, the AUC(0-t) is the area under the concentration-time curve up to a stated or last time point. As usually defined, the half-life is the time needed for the level to fall by half in the phase considered. A high value points to slow loss. For orientation: Cmax means the maximum level reached in the sampled fluid or tissue. Broadly, the Tmax is the time at which the peak concentration occurs.

This series can be described thus: Long-term plasma exposure after a single SC ANA dose (56-day follow-up), plasma LC-MS/MS. Particulars: for AUC(0-inf) / AUC(0-t) / half-life / Cmax / Tmax: Sprague-Dawley, rat, male SD rats, n = 5, 56-day follow-up; for Cmax: read-out: Cmax; for Tmax: read-out: Tmax. It counts as in vivo, Sprague-Dawley rats. The protocol:
To monitor the sustained release of SC ANA in the long term, 10 male SD rats were treated with a single dose of either 7.0 mg/kg (n = 5) or 35.0 mg/kg (n = 5). The rats were purchased from SPF Biotechnology Co. Ltd. (Beijing, China). Animals were acclimated to the test facility for at least three days, during which their general health was checked by veterinary staff or other authorized personnel. Animals were kept in polycarbonate cages containing absorbent corncob bedding, with a maintained temperature range of +20-25 °C and a 12-h light/dark cycle. Animals had access to food and drinking water ad libitum during acclimation and the experiment. At the end of the study, the rats were euthanized by exposure to an increasing concentration of CO2. […] The SC formulation was prepared by dissolving micronized ANA (5 μm particle size) in an oily triglyceride ester of saturated caprylic and capric fatty acids and glycerol (Miglyol® 810 N, IOI Oleo GmbH, Hamburg, Germany). […] To evaluate plasma concentration-time profiles, blood samples were collected from the jugular vein in EDTA tubes and stored at -70 °C until further analysis. […] In the second PK analysis in rats with a longer follow-up time, blood samples were collected at 0, 30 min, 1 […], and 56 d after dosage. SD rat plasma was analyzed for ANA, 3-OH-ANA, and RL603 concentrations by Pharmaron (Beijing, China). ANA, 3-hydroxy-anagrelide (CAS No. 733043-41-9, Cat. No. sc-206647, Santa Cruz Biotechnology, Inc., Dallas, TX), and RL603 (CAS No. 327602-34-6, Cat. No. sc-391661, Santa Cruz Biotechnology, Inc., Dallas, TX) were used as reference items in calibration standards and quality control (QC) samples. The HPLC and the MS/MS (LCMS-8060) instruments were both from SHIMADZU (Kyoto, Japan), and the column used was a Raptor Biphenyl column (2.7 μm, 50 × 2.1 mm, Restek, Bellefonte, PA). The desired serial concentrations of working solutions were achieved by diluting analyte stock solution with 50% acetonitrile in water. […] QC samples at 0.5, 1, 2, 50, and 800 ng/mL were prepared independently of those used for the calibration curves. These QC samples were prepared on the day of analysis in the same way as calibration standards. Carbamazepine (CAS No. 298-46-4, Sigma-Aldrich, St. Louis, MO) was used as an internal standard for all analytes. Altogether, 55 μL of standards, 55 μL of QC samples, and 55 μL of test samples (comprising 50 μL of plasma and 5 μL of blank solution) were added to 200 μL of acetonitrile containing an internal standard mixture to precipitate protein. The samples were then vortexed for 30 seconds. After centrifugation at 4000 × g (+4 °C) for 5 min, the supernatant was diluted threefold with water, and 2 μL of the diluted supernatant was injected into the LC/MS/MS system for quantitative analysis. The transitions were 256.00-198.90 m/z for anagrelide hydrochloride, 272.00-198.95 m/z for 3-hydroxy anagrelide, 216.00-198.95 m/z for RL603, and 237.20-194.10 m/z for carbamazepine. […] Plasma drug concentration-time profiles were drawn by the average plasma concentrations at specific time points using Microsoft Excel (Redmond, WA). […] Certara, Princeton, NJ) software. Averages of each variable were used when PK values were compared.

Where [1] appears, read: analyte in plasma after single SC ANA dose 7 mg/kg.
The mark [2] stands for this setting: analyte in plasma after single SC ANA dose 35 mg/kg.

Where two headings read alike, the source gives them in different places.

Regarding `O=C1CN2Cc3c(ccc(Cl)c3Cl)N=C2N1` [Anagrelide, imidazo‐[2,1‐b] quinazolin‐2[3H]‐one, 6,7‐dichloro‐1,5‐dihydro, monohydro‐chloride], under setting [1], the AUC(0-inf) was determined as 1570 ± 388 ng·h/mL, the AUC(0-t) came to 1460 ± 148 ng·h/mL, the half-life is 12.2 days and the Cmax stood at 6.78 ± 1.86 ng/mL. Besides, under setting [1], the Tmax was determined as 1 h. Under setting [2], the total exposure AUC(0-inf) stood at 9480 ± 5270 ng·h/mL, the area under the curve AUC(0-t) came to 6350 ± 666 ng·h/mL, the half-life is 14 days and the Cmax is 21.8 ± 8.62 ng/mL. Under setting [2], the Tmax is 2.2 ± 1.64 h. For the same compound, for the setting “single SC administration in rats (7 or 35 mg/kg)”, the “time plasma concentrations were detected after a single administration” value was “up to 56 days”.
